According to the NIST ThermoML archive (doi:10.1021/je400272k):

Assay: wn = mass fraction of the nth substance listed
Conditions: Liquid, Vibrating tube method

CCCC[N+](CCCC)(CCCC)CCCC.[Br-] [tetrabutylammonium bromide] + O
mass density [kg/m3]
Conditions	w1 = 0.1	w1 = 0.14	w1 = 0.2	w1 = 0.3	w1 = 0.4
283.15 K, 100 kPa	1008.7	1012.9	1019.9	–	–
285.15 K, 100 kPa	1008.3	1012.6	1019.3	–	–
288.15 K, 100 kPa	1007.6	1011.6	1018.1	1029	1038.5
288.15 K, 1000 kPa	1008	1012.1	1018.6	1029.4	1039
288.15 K, 2000 kPa	1008.4	1012.5	1019	1029.7	1039.4
288.15 K, 3000 kPa	1008.9	1012.9	1019.4	1030.1	1039.7
288.15 K, 4000 kPa	1009.2	1013.3	1019.7	1030.4	1040.1
288.15 K, 5000 kPa	1009.7	1013.7	1020.1	1030.7	1040.4
291.15 K, 100 kPa	1006.7	1010.9	1017	1027.4	1036.7
291.15 K, 1000 kPa	1007.1	1011.2	1017.4	1027.7	1037
291.15 K, 2000 kPa	1007.6	1011.6	1017.8	1028.1	1037.4
291.15 K, 3000 kPa	1008	1012	1018.2	1028.5	1037.8
291.15 K, 4000 kPa	1008.4	1012.4	1018.6	1028.8	1038.1
291.15 K, 5000 kPa	1008.7	1012.7	1018.8	1029.1	1038.4
293.15 K, 100 kPa	1006.2	1010	1016.3	1026.3	1035.3
293.15 K, 1000 kPa	1006.7	1010.4	1016.7	1026.8	1035.7
293.15 K, 2000 kPa	1007	1010.8	–	–	–
